Data set [1] has as its target T1, ROCK2 (Homo sapiens, UniProt O75116).
T1 construct: purchased Upstate/Chemicon 14-451
Nature of the data set: Rho kinase inhibition assay (IMAP fluorescence polarization), ROCK2.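 Also: kinase reaction started with 10 µM ATP and run 60 min at room temperature, then phosphorylated substrate captured on IMAP beads for 30 min and fluorescence polarization read in mP.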 It counts as biochemical.
Protocol: (§1) Following the pre-incubation, 10 μM ATP was added to initiate the reaction. After 60 minutes at room temperature, Molecular Devices IMAP™ binding solution was added to bind phosphorylated substrate. After 30 minutes of incubation in the presence of the IMAP™ beads, the fluorescence polarization was read and the ratio was reported as mP. IC50 values for compounds and EC50 values for ATP were calculated using the Prism software from Graphpad.

The target in data set [2] is T2, ROCK1 (Homo sapiens, UniProt Q13464).
T2 construct: purchased Upstate/Chemicon 14-601
T2 sequence (Q13464 17-535 limits assumed): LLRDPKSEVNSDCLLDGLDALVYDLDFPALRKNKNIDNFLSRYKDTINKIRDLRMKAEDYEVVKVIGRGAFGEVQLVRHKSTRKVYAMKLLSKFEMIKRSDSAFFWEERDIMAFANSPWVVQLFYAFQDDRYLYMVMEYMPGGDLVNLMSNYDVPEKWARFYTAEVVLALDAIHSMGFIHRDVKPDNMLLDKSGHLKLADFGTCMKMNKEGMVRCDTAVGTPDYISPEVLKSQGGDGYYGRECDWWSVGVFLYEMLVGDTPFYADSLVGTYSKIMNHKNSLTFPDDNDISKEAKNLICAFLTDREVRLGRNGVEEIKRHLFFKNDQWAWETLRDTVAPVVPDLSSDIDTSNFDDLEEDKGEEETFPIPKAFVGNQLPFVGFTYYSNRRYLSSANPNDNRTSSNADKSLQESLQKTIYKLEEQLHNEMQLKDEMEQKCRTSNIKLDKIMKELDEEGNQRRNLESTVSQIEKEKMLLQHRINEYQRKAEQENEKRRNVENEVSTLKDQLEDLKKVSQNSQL
Briefly: Rho kinase inhibition assay (IMAP fluorescence polarization), ROCK1.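 Also: kinase reaction run 60 min at room temperature, then phosphorylated substrate captured on IMAP beads for 30 min, with fluorescence polarization read in mP.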 The class given is biochemical.
Protocol: as §1

In data set [3] the target is T3, p70S6K human enzyme (Homo sapiens, UniProt P23443, T412E).
T3 construct: purchased Upstate Chemicon 14-486
T3 sequence (P23443 1-421 T412E limits assumed): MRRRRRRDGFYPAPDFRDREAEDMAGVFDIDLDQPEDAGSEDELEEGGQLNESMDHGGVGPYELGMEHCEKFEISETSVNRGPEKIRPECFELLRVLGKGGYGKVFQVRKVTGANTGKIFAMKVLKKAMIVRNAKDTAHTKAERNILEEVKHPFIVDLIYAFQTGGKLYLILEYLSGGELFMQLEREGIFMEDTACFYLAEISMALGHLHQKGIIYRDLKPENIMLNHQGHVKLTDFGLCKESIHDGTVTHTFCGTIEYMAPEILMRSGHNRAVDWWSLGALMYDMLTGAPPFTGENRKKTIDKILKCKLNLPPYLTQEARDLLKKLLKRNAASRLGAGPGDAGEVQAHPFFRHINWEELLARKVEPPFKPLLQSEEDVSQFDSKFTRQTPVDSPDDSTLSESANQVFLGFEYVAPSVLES
Nature of the data set: p70S6K inhibition assay (IMAP FP).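 Also: kinase reaction run at room temperature, phosphorylated substrate captured on IMAP beads and read as fluorescence polarization in mP, IC50 then converted to Ki.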 It counts as biochemical.
Protocol: Inhibition of Akt3 and p70S6K activity was determined using the IMAP™ FP Progressive Binding Kit (Molecular Devices product number R8127). […] Following the pre-incubation, 30 μM ATP was added to initiate the reaction. After 60 minutes at RT, Molecular Devices IMAP™ binding solution was added to bind phosphorylated substrate. After 30 minutes of incubation in the presence of the IMAP™ beads the fluorescence polarization was read and the ratio was reported as mP. IC50 results were calculated using the Prism software from Graphpad. The Ki values were determined according to the following formula: Ki=IC50/(1+([ATP Challenge]/EC50 ATP)).

The target of data set [4] is T4, Akt3 human enzyme (Homo sapiens, UniProt Q9Y243).
T4 construct: purchased Upstate Chemicon 14-502
T4 sequence (Q9Y243 whole entry): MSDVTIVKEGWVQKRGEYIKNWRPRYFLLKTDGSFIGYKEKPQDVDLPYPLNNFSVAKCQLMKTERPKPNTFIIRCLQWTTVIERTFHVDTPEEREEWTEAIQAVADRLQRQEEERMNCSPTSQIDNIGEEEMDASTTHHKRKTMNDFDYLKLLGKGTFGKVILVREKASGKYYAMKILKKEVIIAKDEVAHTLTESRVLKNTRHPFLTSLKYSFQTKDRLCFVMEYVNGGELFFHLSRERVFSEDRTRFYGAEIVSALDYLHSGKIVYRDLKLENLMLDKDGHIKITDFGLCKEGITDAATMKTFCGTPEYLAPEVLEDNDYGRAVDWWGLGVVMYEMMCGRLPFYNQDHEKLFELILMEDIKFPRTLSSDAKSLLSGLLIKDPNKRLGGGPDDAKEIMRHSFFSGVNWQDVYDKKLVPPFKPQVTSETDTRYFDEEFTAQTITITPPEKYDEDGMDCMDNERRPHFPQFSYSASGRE
Briefly: Akt3 inhibition assay (IMAP FP).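 Also: kinase reaction run 60 min at room temperature after 30 µM ATP start, phosphorylated substrate captured on IMAP beads and read as fluorescence polarization (mP).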 It counts as biochemical.

Data set [5] in a line: Compound plasma concentrations in unsensitized mice at 15 min post administration. The note with it: mouse, 15 μmol/kg; mean compound plasma concentration in mice at 15 minutes post oral administration; read-out: Mouse Oral PK. The class given is in vivo.
Data set [6] deals with A-10 rat thoracic aorta cells. Briefly: PDGF-stimulated smooth muscle cell proliferation assay (BrdU incorporation).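 As to all read-outs here: cells kept in serum-free medium, BrdU allowed to incorporate for 24 h, then incorporated label detected fluorometrically with an anti-BrdU antibody.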 As to conditions: A-10 cells, 10 ng/mL PDGF, BrdU incorporation, percent of total challenge-stimulated proliferation; for Percent of PDGF Induced Proliferation at 1 μM Avg: 1 μM test compound; for Percent of PDGF Induced Proliferation at 10 μM Avg: 10 μM test compound. The class given is cell-based.

The mark [7] stands for this setting: 10 μM ATP, read-out: ROCK2 Ki, Avg.
Setting [8] is: 30 μM ATP, Ki=IC50/(1+([ATP Challenge]/EC50 ATP)), read-out: p70S6K Ki, Avg.
[9] abbreviates: average Ki, read-out: p70S6K Ki.
The mark [10] stands for this setting: 30 μM ATP, Ki=IC50/(1+([ATP Challenge]/EC50 ATP)), read-out: Akt3 Ki, Avg.

Read-outs that look alike come from different tables or passages of the source.

T1 sequence (O75116 11-552 limits assumed): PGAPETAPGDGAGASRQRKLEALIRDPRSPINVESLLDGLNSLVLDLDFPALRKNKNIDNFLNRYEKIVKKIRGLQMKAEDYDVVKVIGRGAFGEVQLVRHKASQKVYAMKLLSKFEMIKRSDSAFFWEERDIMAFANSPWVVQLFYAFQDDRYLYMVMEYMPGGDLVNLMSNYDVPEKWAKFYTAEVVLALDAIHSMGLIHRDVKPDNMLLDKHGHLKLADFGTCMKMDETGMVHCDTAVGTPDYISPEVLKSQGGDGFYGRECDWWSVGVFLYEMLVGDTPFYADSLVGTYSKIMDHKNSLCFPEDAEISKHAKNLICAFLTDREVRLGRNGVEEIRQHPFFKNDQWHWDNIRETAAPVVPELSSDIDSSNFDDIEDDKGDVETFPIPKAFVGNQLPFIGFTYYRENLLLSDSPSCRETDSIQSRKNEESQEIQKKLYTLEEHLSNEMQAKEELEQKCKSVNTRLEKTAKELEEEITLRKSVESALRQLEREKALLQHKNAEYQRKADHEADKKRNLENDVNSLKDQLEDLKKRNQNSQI

On to `NS(=O)(=O)c1cccc(CN2CCC[C@H](Nc3ccc4[nH]ncc4c3)C2)c1` [Compound 1.215, (S)-3-((3-(1H-indazol-5-ylamino)piperidin-1-yl)methyl)benzenesulfonamide], for which the Ki was 3.5 nM in data set [1] (setting [7]); 3.5 nM in data set [1] (average Ki, read-out: ROCK2 Ki); 103 nM in data set [2] (Avg, 10 μM ATP); 103 nM in data set [2] (average Ki); 1290 nM in data set [3] (setting [8]); 1290 nM in data set [3] (setting [9]). Besides, the Ki in data set [4] (setting [10]) was found to be 14800 nM; in data set [4] (average Ki, read-out: Akt3 Ki), 4750 nM. The concentration at 15 min in data set [5] came to 2650 nM. Besides, the “Percent of PDGF Induced Proliferation at 1 μM Avg” value (“Percent … at 1 μM Avg” for short) in data set [6] worked out at 70.8%. The “Percent of PDGF Induced Proliferation at 10 μM Avg” value (shortened to “Percent … at 10 μM Avg”) in data set [6] came out at 54.0%.

With `CCS(=O)(=O)Nc1cccc(CN2CC[C@@H](Nc3cccc4cnccc34)C2)c1` [Compound 2.041, (R)-N-(3-((3-(isoquinolin-5-ylamino)pyrrolidin-1-yl)methyl)phenyl)ethanesulfonamide], the Ki in data set [1] (setting [7]) came to 9.6 nM; in data set [1] (average Ki, read-out: ROCK2 Ki), 9.6 nM; in data set [2] (Avg, 10 μM ATP), 30.8 nM; in data set [2] (average Ki) it was 30.8 nM; in data set [3] (setting [8]), 2100 nM; in data set [3] (setting [9]), 2100 nM. Also, the Ki in data set [4] (setting [10]) was found to be 3440 nM; in data set [4] (average Ki, read-out: Akt3 Ki), 3440 nM. The concentration at 15 min in data set [5] came to 987 nM. Further, the “Percent … at 1 μM Avg” value in data set [6] is listed as 81.8%. Besides, the “Percent … at 10 μM Avg” value in data set [6] turned out to be 61.5%.

Consider `c1cc(C2CC2)ccc1CN1CCC[C@@H](Nc2ccc3[nH]ncc3c2)C1` [Compound 1.206, (R)-N-(1-(4-cyclopropylbenzyl)piperidin-3-yl)-1H-indazol-5-amine], for which the Ki in data set [1] (setting [7]) worked out at 9.1 nM; in data set [1] (average Ki, read-out: ROCK2 Ki), 9.1 nM; in data set [2] (Avg, 10 μM ATP), 64.4 nM; in data set [2] (average Ki) it was 64.4 nM; in data set [3] (setting [8]), 314 nM; in data set [3] (setting [9]), 314 nM. Also, the Ki in data set [4] (setting [10]) is 529 nM; in data set [4] (average Ki, read-out: Akt3 Ki), 529 nM. For the same compound, in data set [5], the concentration at 15 min came to 672 nM. Besides, the “Percent … at 1 μM Avg” value in data set [6] is listed as 77.5%. Moreover, the “Percent … at 10 μM Avg” value in data set [6] was found to be 51.1%.

In the case of `CCCS(=O)(=O)Nc1cc(CN2CCC[C@H](Nc3ccc4[nH]ncc4c3)C2)ccc1C` [Compound 1.238, (S)-N-(5-((3-(1H-indazol-5-ylamino)piperidin-1-yl)methyl)-2-methylphenyl)propane-1-sulfonamide], the Ki in data set [1] (setting [7]) was determined as 1.5 nM; in data set [1] (average Ki, read-out: ROCK2 Ki), 1.5 nM; in data set [2] (Avg, 10 μM ATP) it was 61.2 nM; in data set [2] (average Ki) it was 61.2 nM; in data set [3] (setting [8]), 2610 nM; in data set [3] (setting [9]), 2610 nM. The Ki came to 4170 nM in data set [4] (setting [10]) and 4170 nM in data set [4] (average Ki, read-out: Akt3 Ki). Moreover, the concentration at 15 min in data set [5] was determined as 48 nM. Besides, the “Percent … at 1 μM Avg” value in data set [6] is 40.7%. The “Percent … at 10 μM Avg” value in data set [6] was found to be 48.6%.

As for `Cc1ccc(CN2CCC[C@@H](Nc3ccc4[nH]ncc4c3)C2)cc1O` [Compound 1.173, (R)-5-((3-(1H-indazol-5-ylamino)piperidin-1-yl)methyl)-2-methylphenol], the Ki in data set [1] (setting [7]) turned out to be 3.6 nM; in data set [1] (average Ki, read-out: ROCK2 Ki), 3.6 nM; in data set [2] (Avg, 10 μM ATP) it was 15.1 nM; in data set [2] (average Ki) it was 15.1 nM; in data set [3] (setting [8]), 340 nM; in data set [3] (setting [9]) it was 340 nM. In addition, the Ki in data set [4] (setting [10]) is 157 nM; in data set [4] (average Ki, read-out: Akt3 Ki), 157 nM. For the same compound, in data set [5], the concentration at 15 min is 144 nM. In addition, in data set [6], the “Percent … at 1 μM Avg” value is reported as 55.4%. Further, the “Percent … at 10 μM Avg” value in data set [6] was found to be 35.8%.

Regarding `Cc1ccc(CN2CCC[C@H](Nc3ccc4[nH]ncc4c3)C2)cc1O` [Compound 1.151, (S)-5-((3-(1H-indazol-5-ylamino)piperidin-1-yl)methyl)2-methylphenol], the Ki in data set [1] (setting [7]) turned out to be 2.9 nM; in data set [2] (Avg, 10 μM ATP), 22.8 nM; in data set [3] (setting [8]), 531 nM; in data set [4] (setting [10]) it was 709 nM. In addition, the “Percent … at 1 μM Avg” value in data set [6] was determined as 51.0%. Further, the “Percent … at 10 μM Avg” value in data set [6] was found to be 63.8%.

The values are drawn from US20090325959A1 (priority 2008, published 2009).
